Reference: ChEMBL document CHEMBL4177553, “Rapid screening the potential mechanism-based inhibitors of CYP3A4 from Tripterygium wilfordi based on computer approaches combined with in vitro bioassay” (Bioorg Med Chem, 2017)

Key:
Cytochrome P450 3A4 [1] = biological target: T1, Cytochrome P450 3A4 (Homo sapiens, UniProt P08684); assay: Inhibition of CYP3A4 in human liver microsomes assessed as reduction in formation of midazolam to 1-Hydroxy midazolam at 50 uM preincubated for 30 mins followed by substrate addition measured after 15 mins in presence of NADPH by UPLC-MS analysis; format: ADME; settings: 0.25 h
Cytochrome P450 1A2 = biological target: T2, Cytochrome P450 1A2 (Homo sapiens, UniProt P05177); assay: Inhibition of CYP1A2 in human liver microsomes assessed as reduction in formation of phenacetin to acetaminophen at 50 uM preincubated for 30 mins followed by substrate addition measured after 15 mins in presence of NADPH by UPLC-MS analysis; format: ADME; settings: 0.25 h
T2 sequence (P05177 whole entry): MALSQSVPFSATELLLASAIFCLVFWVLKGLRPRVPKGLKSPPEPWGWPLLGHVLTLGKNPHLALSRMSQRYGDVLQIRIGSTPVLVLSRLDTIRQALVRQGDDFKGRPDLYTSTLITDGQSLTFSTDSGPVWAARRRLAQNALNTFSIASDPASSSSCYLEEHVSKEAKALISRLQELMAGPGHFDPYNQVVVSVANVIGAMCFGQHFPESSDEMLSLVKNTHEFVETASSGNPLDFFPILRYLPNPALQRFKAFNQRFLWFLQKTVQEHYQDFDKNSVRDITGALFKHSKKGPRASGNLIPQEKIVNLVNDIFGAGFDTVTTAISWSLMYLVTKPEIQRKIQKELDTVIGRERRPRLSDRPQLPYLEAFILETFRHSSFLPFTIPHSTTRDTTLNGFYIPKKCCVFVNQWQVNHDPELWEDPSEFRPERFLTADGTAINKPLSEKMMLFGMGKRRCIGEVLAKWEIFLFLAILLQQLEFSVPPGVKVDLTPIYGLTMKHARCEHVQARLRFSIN

Cytochrome P450 2C9 = Cytochrome P450 2C9 (Homo sapiens, UniProt P11712); assay: Inhibition of CYP2C9 in human liver microsomes assessed as reduction in formation of tolbutamide to 4-Hydroxytolbutamide at 50 uM preincubated for 30 mins followed by substrate addition measured after 15 mins in presence of NADPH by UPLC-MS analysis; format: ADME; settings: 0.25 h
Cytochrome P450 2C19 = Cytochrome P450 2C19 (Homo sapiens, UniProt P33261); assay: Inhibition of CYP2C19 in human liver microsomes assessed as reduction in formation of mephenytoin to 4-Hydroxy mephenytoin at 50 uM preincubated for 30 mins followed by substrate addition measured after 15 mins in presence of NADPH by UPLC-MS analysis; format: ADME; settings: 0.25 h
Cytochrome P450 2D6 = Cytochrome P450 2D6 (Homo sapiens, UniProt P10635); assay: Inhibition of CYP2D6 in human liver microsomes assessed as reduction in formation of dextromethorphan to dextrorphan at 50 uM preincubated for 30 mins followed by substrate addition measured after 15 mins in presence of NADPH by UPLC-MS analysis; format: ADME; settings: 0.25 h
Cytochrome P450 2E1 = Cytochrome P450 2E1 (Homo sapiens, UniProt P05181); assay: Inhibition of CYP2E1 in human liver microsomes assessed as reduction in formation of chlorzoxazone to 6-Hydroxy chlorzoxazone at 50 uM preincubated for 30 mins followed by substrate addition measured after 15 mins in presence of NADPH by UPLC-MS analysis; format: ADME; settings: 0.25 h
Cytochrome P450 3A4 [2] = biological target: T1, Cytochrome P450 3A4; assay: Inhibition of CYP3A4 in human liver microsomes assessed as reduction in formation of midazolam to 1-Hydroxy midazolam at 50 uM preincubated for 30 mins followed by substrate addition measured after 15 mins in presence of varying levels of NADPH by UPLC-MS analysis; format: ADME; settings: 0.25 h
Cytochrome P450 3A4 [3] = biological target: T1, Cytochrome P450 3A4; assay: Drug metabolism in human liver microsomes assessed as CYP3A4-mediated metabolite formation at […] preincubated for 5 mins followed by NADPH addition measured after 2 hrs by UPLC-MS/MS analysis; format: ADME
Cytochrome P450 3A4 [4] = biological target: T1, Cytochrome P450 3A4; assay: Inhibition of CYP3A4 in human liver microsomes assessed as reduction in formation of midazolam to 1-Hydroxy midazolam preincubated for 30 mins followed by substrate addition measured after 15 mins in presence of NADPH by UPLC-MS analysis; format: ADME; settings: 0.25 h
Cytochrome P450 3A4 [5] = biological target: T1, Cytochrome P450 3A4; assay: Drug metabolism in human liver microsomes assessed as CYP3A4-mediated M1 metabolite formation at […] preincubated for 5 mins followed by NADPH addition measured after 2 hrs by UPLC-MS/MS analysis; format: ADME
Cytochrome P450 3A4 [6] = biological target: T1, Cytochrome P450 3A4; assay: Drug metabolism in human liver microsomes assessed as CYP3A4-mediated M2 metabolite formation at […] preincubated for 5 mins followed by NADPH addition measured after 2 hrs by UPLC-MS/MS analysis; format: ADME
[7] = Retention time of the compound in human liver microsomes by UPLC-MS/MS analysis; format: ADME, microsome
[8] = Drug metabolism in human liver microsomes assessed as monohydroxy formation in presence of GSH and water by UPLC-MS/MS analysis; format: ADME, microsome

Chain of Cytochrome P450 2D6 (P10635 whole entry): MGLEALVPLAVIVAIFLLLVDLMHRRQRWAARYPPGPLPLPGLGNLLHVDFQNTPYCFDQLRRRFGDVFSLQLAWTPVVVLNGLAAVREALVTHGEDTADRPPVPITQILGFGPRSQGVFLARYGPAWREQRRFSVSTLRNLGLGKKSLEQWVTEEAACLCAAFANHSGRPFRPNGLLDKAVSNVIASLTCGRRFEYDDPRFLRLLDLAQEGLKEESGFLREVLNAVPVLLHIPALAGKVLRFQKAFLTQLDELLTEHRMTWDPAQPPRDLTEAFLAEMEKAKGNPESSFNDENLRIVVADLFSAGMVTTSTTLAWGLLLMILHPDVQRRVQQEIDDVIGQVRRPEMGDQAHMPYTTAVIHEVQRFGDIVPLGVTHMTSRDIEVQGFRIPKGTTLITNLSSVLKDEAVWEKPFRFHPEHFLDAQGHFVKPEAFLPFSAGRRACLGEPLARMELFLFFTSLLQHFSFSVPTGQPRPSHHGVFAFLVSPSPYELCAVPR
Chain of Cytochrome P450 2E1 (P05181 whole entry): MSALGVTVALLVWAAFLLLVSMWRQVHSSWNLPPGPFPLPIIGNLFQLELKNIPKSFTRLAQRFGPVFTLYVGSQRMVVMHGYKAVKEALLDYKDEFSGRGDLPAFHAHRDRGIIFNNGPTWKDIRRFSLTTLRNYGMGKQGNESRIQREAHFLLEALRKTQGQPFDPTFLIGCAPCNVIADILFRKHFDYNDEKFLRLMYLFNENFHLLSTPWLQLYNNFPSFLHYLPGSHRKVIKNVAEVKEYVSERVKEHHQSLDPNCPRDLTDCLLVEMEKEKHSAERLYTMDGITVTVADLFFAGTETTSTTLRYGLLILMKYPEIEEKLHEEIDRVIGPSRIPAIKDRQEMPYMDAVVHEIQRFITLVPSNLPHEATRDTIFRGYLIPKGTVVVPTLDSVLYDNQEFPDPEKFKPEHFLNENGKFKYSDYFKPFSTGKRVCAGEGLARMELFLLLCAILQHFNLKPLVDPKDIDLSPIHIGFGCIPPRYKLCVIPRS
T1 sequence (P08684 whole entry): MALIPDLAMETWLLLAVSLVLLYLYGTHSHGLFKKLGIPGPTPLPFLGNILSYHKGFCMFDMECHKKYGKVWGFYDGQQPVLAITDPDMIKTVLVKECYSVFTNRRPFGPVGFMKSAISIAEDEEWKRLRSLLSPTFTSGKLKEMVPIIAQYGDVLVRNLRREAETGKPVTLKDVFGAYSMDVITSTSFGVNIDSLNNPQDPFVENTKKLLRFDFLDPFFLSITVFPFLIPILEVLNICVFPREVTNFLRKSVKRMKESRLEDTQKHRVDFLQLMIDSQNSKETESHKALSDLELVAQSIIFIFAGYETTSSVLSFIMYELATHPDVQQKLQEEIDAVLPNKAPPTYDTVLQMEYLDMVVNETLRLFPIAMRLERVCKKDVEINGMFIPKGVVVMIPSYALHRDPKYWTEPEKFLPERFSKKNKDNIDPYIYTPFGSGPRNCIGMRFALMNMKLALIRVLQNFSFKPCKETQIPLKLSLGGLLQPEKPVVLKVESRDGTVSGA
Chain of Cytochrome P450 2C9 (P11712 whole entry): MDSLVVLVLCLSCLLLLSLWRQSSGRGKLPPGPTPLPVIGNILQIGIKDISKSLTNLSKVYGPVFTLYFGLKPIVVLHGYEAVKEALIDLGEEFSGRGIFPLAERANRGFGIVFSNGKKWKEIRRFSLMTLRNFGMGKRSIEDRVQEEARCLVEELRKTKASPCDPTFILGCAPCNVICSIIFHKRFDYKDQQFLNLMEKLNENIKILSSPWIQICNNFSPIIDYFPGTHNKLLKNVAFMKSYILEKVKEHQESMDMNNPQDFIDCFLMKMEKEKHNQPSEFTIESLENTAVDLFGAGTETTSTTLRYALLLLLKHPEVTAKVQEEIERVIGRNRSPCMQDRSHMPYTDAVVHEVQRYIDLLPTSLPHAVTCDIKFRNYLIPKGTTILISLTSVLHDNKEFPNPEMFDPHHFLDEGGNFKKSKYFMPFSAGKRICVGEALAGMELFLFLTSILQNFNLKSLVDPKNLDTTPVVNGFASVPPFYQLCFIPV
Chain of Cytochrome P450 2C19 (P33261 whole entry): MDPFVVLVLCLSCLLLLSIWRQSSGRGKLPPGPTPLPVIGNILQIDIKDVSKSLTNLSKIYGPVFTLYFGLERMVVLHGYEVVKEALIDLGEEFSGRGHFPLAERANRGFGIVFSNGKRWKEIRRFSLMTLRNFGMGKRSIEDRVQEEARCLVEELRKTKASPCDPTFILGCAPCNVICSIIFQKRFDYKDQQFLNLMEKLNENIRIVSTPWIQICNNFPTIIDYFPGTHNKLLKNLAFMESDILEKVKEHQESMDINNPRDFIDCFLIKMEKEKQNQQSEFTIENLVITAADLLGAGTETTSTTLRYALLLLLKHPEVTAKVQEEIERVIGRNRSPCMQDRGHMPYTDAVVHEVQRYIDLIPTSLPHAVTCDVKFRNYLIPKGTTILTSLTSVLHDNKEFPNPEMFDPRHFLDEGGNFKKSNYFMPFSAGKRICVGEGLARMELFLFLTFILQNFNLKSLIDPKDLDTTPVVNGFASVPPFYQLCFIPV

Compound	inhibition (INH) (Cytochrome P450 3A4 [1])	inhibition (INH) (Cytochrome P450 1A2)	inhibition (INH) (Cytochrome P450 2C9)	inhibition (INH) (Cytochrome P450 2C19)	inhibition (INH) (Cytochrome P450 2D6)	inhibition (INH) (Cytochrome P450 2E1)	inhibition (INH) (Cytochrome P450 3A4 [2])	Drug metabolism (Cytochrome P450 3A4 [3])	inhibition (INH) (Cytochrome P450 3A4 [4])	Drug metabolism (Cytochrome P450 3A4 [5])	Drug metabolism (Cytochrome P450 3A4 [6])	Retention_time [7] [min]	Drug metabolism [8]
CC(=O)OC[C@]12[C@H](OC(C)=O)[C@H](OC(C)=O)[C@@H]3[C@@H](OC(C)=O)[C@@]14O[C@@]3(C)COC(=O)c1cccnc1CCC(C)C(=O)O[C@@H]([C@H](OC(=O)c1ccoc1)[C@@H]2OC(C)=O)[C@]4(C)O (stereo not given in full)	Active	Not Active	Not Active	Not Active	Not Active	Not Active	Not Active	Metabolite_Notdetected					
CC(=O)OC[C@]12[C@H](OC(C)=O)[C@H](OC(C)=O)[C@@H]3[C@@H](OC(C)=O)[C@@]14O[C@@]3(C)COC(=O)c1cccnc1CC[C@H](C)C(=O)O[C@@H]([C@H](OC(=O)c1ccccc1)[C@@H]2OC(C)=O)[C@]4(C)O	Active	Active	Active	Active	Active	Active							
CC(=O)OC[C@]12[C@H](OC(C)=O)[C@H](OC(C)=O)[C@@H]3[C@@H](OC(C)=O)[C@@]14O[C@@]3(C)COC(=O)c1cccnc1CC[C@@](C)(O)C(=O)O[C@@H]([C@H](OC(=O)c1ccccc1)[C@@H]2OC(C)=O)[C@]4(C)O	Active	Active	Active	Active	Active	Active							

The next lines start with the values.

inhibition (INH) (Cytochrome P450 3A4 [1])	inhibition (INH) (Cytochrome P450 1A2)	inhibition (INH) (Cytochrome P450 2C9)	inhibition (INH) (Cytochrome P450 2C19)	inhibition (INH) (Cytochrome P450 2D6)	inhibition (INH) (Cytochrome P450 2E1)	inhibition (INH) (Cytochrome P450 3A4 [2])	Drug metabolism (Cytochrome P450 3A4 [3])	inhibition (INH) (Cytochrome P450 3A4 [4])	Drug metabolism (Cytochrome P450 3A4 [5])	Drug metabolism (Cytochrome P450 3A4 [6])	Retention_time [7] [min]	Drug metabolism [8]	Compound
Active	Not Active	Not Active	Not Active	Not Active	Not Active	Not Active	Metabolite_Notdetected						CC(=O)OC[C@@]12[C@H](OC(C)=O)[C@H](OC(C)=O)[C@@H]3[C@@H](OC(C)=O)[C@@]14O[C@@]3(C)COC(=O)c1cccnc1[C@@H](C)[C@H](C)C(=O)O[C@@H]([C@H](OC(C)=O)[C@@H]2OC(C)=O)[C@]4(C)O
Active	Not Active	Not Active	Not Active	Not Active	Not Active	Active		Dose-dependent effect	Metabolite_Detected	Metabolite_Detected	10.55	Metabolite_Detected	CC(=O)OC[C@]12[C@H](OC(C)=O)[C@H](OC(C)=O)[C@@H]3[C@@H](OC(C)=O)[C@@]14O[C@@]3(C)COC(=O)c1cccnc1CC[C@@](C)(O)C(=O)O[C@@H]([C@H](OC(=O)c1ccoc1)[C@@H]2OC(C)=O)[C@]4(C)O
